{"source": "paper PMC7901650", "about": "“Garcinoic Acid Is a Natural and Selective Agonist of Pregnane X Receptor” (Journal of Medicinal Chemistry, 2020)", "key": {"HepaRG cells": {"test_system": "HepaRG cells", "assay": "PXR protein expression in HepaRG cells", "type": "cell-based", "conditions": "24 h, 1 to 25 μM, compared with HepG2", "method": "HepG2 (human hepatoma cell line; ATCC HB-8065, Manassas, VA) and HepaRG (HPRGC10, Thermo Fisher Scientific) cells were maintained in culture as previously described.[47] Experiments were performed between passages 2 and 10. Cell viability, clonogenic activity, and apoptotic cell death were assessed as previously described (see Figure S2).[58],[59] HT29 human colorectal adenocarcinoma cells (ATCC HTB-38) and its mucous-secreting HT29-MTX subclone (Sigma-Aldrich) were used as intestinal cell models. HT29 cells were cultured in RPMI (Invitrogen; Life Technologies) containing 10% FBS (v/v) and 1% (v/v) L-glutamine. HT29-MTX cells (from Sigma-Aldrich) were cultured in DMEM supplemented with 2 mM glutamine, 1% nonessential amino acids, and 10% FBS. […]\nCells were harvested and lysed in ice-cold cell lysis buffer (Cell Signaling Technology) and 20 μL/mL protease inhibitor cocktail (Roche). […] After incubation in ice for 1 h and centrifugation (12 000 rpm for 20 min at 4 °C), the supernatant was recovered, and total proteins were quantified by the BCA assay kit (Pierce, Thermo Fisher Scientific). […] The band intensity was analyzed using Gel Pro analyzer Software. […]\nPXR protein was assessed by immunoblot (10 µg total protein loading) in HepaRG cells treated for 24 hrs with GA at concentrations between 1 and 25 μM (A). […]"}, "CAR": {"molecular_target": "T1, CAR (Homo sapiens, UniProt Q14994)", "T1 construct": "GST-LBD", "T1 sequence (Q14994 109-352 limits assumed)": "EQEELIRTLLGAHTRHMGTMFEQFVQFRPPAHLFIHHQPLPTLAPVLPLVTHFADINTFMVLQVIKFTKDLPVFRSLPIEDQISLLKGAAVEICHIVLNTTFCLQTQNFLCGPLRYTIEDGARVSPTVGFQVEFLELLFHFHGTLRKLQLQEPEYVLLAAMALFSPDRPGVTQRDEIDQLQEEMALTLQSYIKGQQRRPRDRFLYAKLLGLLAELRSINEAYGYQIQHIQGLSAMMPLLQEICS", "assay": "AlphaScreen nuclear receptor panel, CAR", "type": "biochemical", "description": "Ligand binding activity of GA (1) was explored via AlphaScreen technology over a panel of NRs that, along with hPXR (Figure 1A), included major human endocrine and metabolic receptors, such as the retinoid X receptor (RXR), constitutive androstane receptor (CAR), farnesoid X receptor (FXR), vitamin D receptor (VDR), liver X receptor (LXR) forms α and β, and the PPAR isoforms α, δ, and γ (see Figure S1). GA (1) was compared to its analogue δ-tocotrienol (5), the vitamers 3 and 4, their short-chain metabolites (SCMs) α-CEHC (10) and γ-CEHC (11), and the LCMs 2 and 8 (Chart 1). The test was performed in the presence of reference standard agonists for the different NRs.\nThe activity of nuclear receptors was determined using AlphaScreen technology, a recruitment coactivator assay previously described.[56]\n(A) The test was carried out at 10 μM compound final concentration. Ligand binding to nuclear receptors was expressed as luminescence units. […] Vehicle was assessed to obtain a measure of background signal (basal evaluation). […] In presence of the ligand, the nuclear receptor LBD undergoes conformational changes, binds to the coactivator and the chemical energy is transferred from donor to acceptor beads in order to produce a signal, i.e. luminescence; in this case the compounds behaves as agonist, changing the conformation of the receptor to recruit the coactivator. […]"}, "PXR": {"test_system": "PXR", "assay": "PXR, CYP3A4 (CYP3A11) expression in mouse liver and intestine after single bolus", "type": "in vivo", "conditions": "24 h post-treatment"}}, "data": [{"smiles": "C/C(=C\\CC/C(C)=C/CC[C@]1(C)CCc2cc(O)cc(C)c2O1)CC/C=C(\\C)C(=O)O", "note": "[GA (1), (2E,6E,10E)-13-[(2R)-6-hydroxy-2,8-dimethyl-chroman-2-yl]-2,6,10-trimethyltrideca-2,6,10-trienoic acid]", "values": [{"measurement": "PXR protein response", "setting": "HepaRG cells", "result": "Even higher"}, {"measurement": "Effect on CAR (constitutive activation)", "setting": "CAR", "result": "partially inhibited"}, {"measurement": "CYP3A4 (CYP3A11 in mice) protein expression in liver and intestine", "setting": "PXR; 5 to 25 mg single bolus", "result": "increased"}, {"measurement": "PXR mRNA in intestine", "setting": "PXR; mice, 5 to 25 mg single bolus", "result": "increased"}, {"measurement": "PXR protein and mRNA in liver tissue", "setting": "PXR; mice, 5 to 25 mg single bolus", "result": "dose-dependent stimulation effect"}, {"measurement": "PXR protein expression in intestine", "setting": "PXR; mice, single bolus", "result": "not sufficient to significantly increase PXR protein expression"}]}]}
